Source: ChEMBL document CHEMBL1142622, “Inhibition of phospholipase cgamma1 and cancer cell proliferation by triterpene esters from Uncaria rhynchophylla” (J Nat Prod, 2000)
Values after ≈ are worked out from the molar mass of the structure shown.

Assays:
HT1197 = experiment: Antiproliferative activity against PLCgamma1 expressing human HT1197 cells; format: functional, cell-based
HCT-15 = experiment: Antiproliferative activity against PLCgamma1 expressing human HCT15 cells; format: functional, cell-based
[1] = target: T1, 1-phosphatidylinositol 4,5-bisphosphate phosphodiesterase gamma-1 (Homo sapiens, UniProt P19174); experiment: Inhibition of PLCgamma1
T1 sequence (P19174 whole entry): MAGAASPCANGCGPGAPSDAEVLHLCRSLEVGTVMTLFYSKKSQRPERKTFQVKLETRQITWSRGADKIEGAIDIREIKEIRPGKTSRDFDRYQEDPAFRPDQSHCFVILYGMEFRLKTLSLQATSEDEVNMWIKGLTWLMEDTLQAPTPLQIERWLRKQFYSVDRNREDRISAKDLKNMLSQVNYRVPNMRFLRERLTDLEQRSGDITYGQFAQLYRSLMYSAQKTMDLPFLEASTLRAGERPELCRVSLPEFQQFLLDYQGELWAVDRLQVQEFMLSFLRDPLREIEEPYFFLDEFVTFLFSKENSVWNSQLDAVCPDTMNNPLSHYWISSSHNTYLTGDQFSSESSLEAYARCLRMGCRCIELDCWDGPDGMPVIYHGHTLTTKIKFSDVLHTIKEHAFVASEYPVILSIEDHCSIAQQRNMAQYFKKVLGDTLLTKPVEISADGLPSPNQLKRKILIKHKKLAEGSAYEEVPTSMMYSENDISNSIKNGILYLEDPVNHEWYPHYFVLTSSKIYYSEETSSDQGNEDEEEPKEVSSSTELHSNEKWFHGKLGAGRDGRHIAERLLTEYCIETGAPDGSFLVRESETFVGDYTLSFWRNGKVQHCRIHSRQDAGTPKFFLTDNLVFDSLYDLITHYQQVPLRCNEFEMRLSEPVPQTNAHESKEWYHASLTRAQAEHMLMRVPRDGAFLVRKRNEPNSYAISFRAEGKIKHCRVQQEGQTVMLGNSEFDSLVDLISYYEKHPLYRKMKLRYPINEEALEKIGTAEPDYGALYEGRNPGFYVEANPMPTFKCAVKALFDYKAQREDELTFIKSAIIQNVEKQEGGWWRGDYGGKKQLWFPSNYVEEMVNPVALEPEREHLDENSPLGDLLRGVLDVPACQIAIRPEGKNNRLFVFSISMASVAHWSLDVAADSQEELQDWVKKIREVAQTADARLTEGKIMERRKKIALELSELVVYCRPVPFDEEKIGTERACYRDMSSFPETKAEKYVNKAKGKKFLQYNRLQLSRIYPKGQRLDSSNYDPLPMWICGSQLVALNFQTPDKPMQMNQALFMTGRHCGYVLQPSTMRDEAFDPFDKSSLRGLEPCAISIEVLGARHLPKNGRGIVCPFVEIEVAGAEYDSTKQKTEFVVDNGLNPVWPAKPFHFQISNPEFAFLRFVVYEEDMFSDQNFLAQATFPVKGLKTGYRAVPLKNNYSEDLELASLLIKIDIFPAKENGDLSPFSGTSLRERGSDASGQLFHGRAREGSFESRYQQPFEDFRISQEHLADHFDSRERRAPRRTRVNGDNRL

NIH3T3 = experiment: Inhibition of PDGF-induced phosphotidyl inositol turnover in PLCgamma1 expressing mouse NIH3T3 cells; format: functional, cell-based

IC50 (HCT-15) | IC50 [1] | SMILES | IC50 (HT1197) | IC50 (NIH3T3)
13.4 µg/mL (≈ 24.7 µM) |  | COc1cccc2c1C(=O)c1c(O)c3c(c(O)c1C2=O)C[C@@](O)(C(=O)CO)C[C@@H]3O[C@H]1C[C@H](N)[C@H](O)[C@H](C)O1 [DOXORUBICIN] | 0.03 µg/mL (≈ 0.0552 µM) | 
 | 29 µM | O=c1cc(-c2ccc(O)c(-c3c(O)cc(O)c4c(=O)cc(-c5ccc(O)cc5)oc34)c2)oc2cc(O)cc(O)c12 [AMENTOFLAVONE] |  | 9.2 µM
